Measurements from patent US20110071124A1, “Compounds that Inhibit Production of sAPPB and AB and Uses Thereof” (The Trustees of Columbia University in the City of New York, priority 2008, published 2011).
Where two headings read alike, the source gives them in different places.

Legend:
[1] = test system: sAPPβ (BACE1 cleavage of SEAP-APPwt) in SY5Y-BACEGFP-SEAPAPPwt cells; assay: cell-based BACE1 assay (sAPPβ modified ELISA)
Protocol: FIG. 1. An sAPPβ assay utilized to identify inhibitors of BACE1. The assay utilizes SY5Y cells stably overexpressing BACE-GFP and SEAP-APPwt. Cells are incubated with a candidate compound for 6 hours prior to harvesting media. BACE1-mediated cleavage of APP results in the release of sAPPβ into the media. α-secretase, a competing enzyme that is non-amyloidogenic, also cleaves APP to release […]. Using an sAPPβ-specific antibody (sβwt), SEAP-sAPPβ is specifically captured in a modified ELISA assay. Detection is achieved by addition of the fluorescent alkaline phosphatase substrate, 4-methylumbelliferyl phosphate (4-MUP).
FIG. 13. […] Compounds were tested in SY5Y-BACEGFP-SEAPAPPwt cells using the cell-based BACE1 assay. Select compounds were also investigated for Aβ-lowering effect using a commercial Aβ ELISA kit (BioSource). All compounds were tested at 8 concentrations (30, 10, 3, 1, 0.3, 0.1, 0.03, and 0.01 μM), and data points were analyzed with Origin software and fitted using a logistic model for IC50 determination.
As described in the Examples below, and depicted in FIG. 1, an sAPPβ ELISA assay may comprise cells, for example, SY5Y cells, transfected with a BACE1 reporter construct, such as a GFP-tagged BACE1 (BACE-GFP), and a wild type APP reporter construct, such as a secreted alkaline phosphatase (SEAP)-tagged wild type APP (SEAP-APPwt). BACE1 cleavage of the reporter-tagged APP (e.g. SEAP-APPwt) may result in secretion into the media of SEAP-tagged sAPPβ, which may be collected and specifically captured using an sAPPβ cleavage site-specific antibody (e.g. stβwt). Following washing, a substrate may be used, for example, the fluorescent alkaline phosphatase substrate 4-methylumbelliferyl phosphate (4-MUP), to detect the captured SEAP-sAPPβ.
A cell-based modified ELISA assay for measuring sAPPβ, the secreted ectodomain of β-amyloid precursor protein (APP) following β-secretase (BACE1) cleavage, was used to identify a class of compounds that interfered with the first step of sAPPβ generation. This assay has been described in International Application PCT/US2007/015938 (Published as International Publication No. WO 08/008463), which is herein incorporated in its entirety for all purposes.
The SY5Y-BACEGFP-SEAPAPPwt cell based assay was developed to discover novel small molecule modulators of BACE1 activity. SY5Y cells were stably transfected with GFP-tagged BACE1 (BACE-GFP) and secreted alkaline phosphatase (SEAP)-tagged wildtype APP (SEAP-APPwt). BACE1 cleavage of SEAP-APPwt results in secretion into the media of SEAP-tagged sAPPβ, which is collected and specifically captured using an sAPP0 cleavage site-specific antibody (sβwt). After washing, the fluorescent alkaline phosphatase substrate 4-methylumbelliferyl phosphate (4-MUP) is used to detect the captured SEAP-sAPPβ (FIG. 1).
The 15 LDDN compounds selected based on their 3-point dose-response profile were tested at 12 concentrations (ranging from 0.1 nM to 30 μM) in the cell-based BACE1 assay. The assay was conducted in 96-well format to maximize the Z′ factor. Compounds were characterized in duplicate cell plates, each containing 12 doses of compound in triplicate. Cell viability was measured at 6 and 24 hours using Promega's Cell Titer-Glo kit according to the manufacturer's protocol. The dose-response curves for sAPPβ reduction were plotted using Origin software and fitted using a logistic model for IC50 determination.
27 structural analogs of LDN-0057228 were synthesized and tested using the cell-based BACE1 assay in SY5Y-BACEGFP-SEAPAPPwt cells (FIG. 13). 4 analogs, in addition to the parent compound, were also assessed for Aβ40 lowering activity using a commercial Aβ kit (BioSource). Because LDN-0057228 resembles CNS monoamine transporter inhibitors, this analog series was given the designation “CNS.” LDN-0057228 gave an unexpectedly low potency (IC50˜20 μM for both sAPPβ and Aβ40 reduction) compared to the ˜7 μM potency obtained using the same compound in FIG. 8.

[2] = test system: Aβ40 in Tg2576 primary cortical neurons; assay: Aβ40 ELISA in Tg2576 primary cortical neurons; format: cell-based, mouse; details: 24 hours, normalized to total protein
Protocol: (§1) FIG. 17A-B. LDN-0057228 and CNS-2 reduce Aβ40 and sAPPβ in Tg2576 primary neurons. Primary cortical neurons were cultured from P0 APPsw transgenic pups (Tg2576). DIV-14 neurons were treated for 24 hours with LDN-0057228 or CNS-2 at the indicated concentrations. Data from two independent experiments were pooled. A) Media was collected for Aβ40 ELISA. Raw Aβ40 values were normalized to total protein to control for variations in plating density or any cytotoxicity resulting from the compounds. B) sAPPβ in the media was immunoprecipitated with sβsw antibody and visualized on Western blot with LN27.
Culturing primary neurons from Tg2576 pups offers the advantage of equal APP expression, but suffers the drawback of lower yield since only half the pups contains the transgene. Furthermore, because neurons from each pup has to be plated separately, plating density and neuronal survivability may vary from mouse to mouse. Thus, total protein was used to normalize the data.
CNS-2 and LDN-0057228 were evaluated in the Tg2576 pup system (FIG. 17). Primary cortical neurons were harvested from P0 Tg2576 pups. Each pup yielded 3 wells on a 12-well plate at a plating density of 0.8×10^5 cells per well. After genotyping, neurons from each transgenic pup (APPsw +/−) were treated with DMSO, LDN-0057228 (20 μM), or CNS-2 (5 μM) at DIV-14 for 24 hours. […]

[3] = test system: sAPPβ in Tg2576 primary cortical neurons; assay: sAPPβ IP-Western in Tg2576 primary cortical neurons; format: cell-based, mouse; details: LDN-0057228 20 μM, CNS-2 5 μM, 24 hours
Protocol: as §1
CNS-2 and LDN-0057228 were evaluated in the Tg2576 pup system (FIG. 17). Primary cortical neurons were harvested from P0 Tg2576 pups. Each pup yielded 3 wells on a 12-well plate at a plating density of 0.8×10^5 cells per well. After genotyping, neurons from each transgenic pup (APPsw +/−) were treated with DMSO, LDN-0057228 (20 μM), or CNS-2 (5 μM) at DIV-14 for 24 hours. Data from two independent experiments were pooled, representing primary neurons from 4 transgenic pups. LDN-0057228 (20 μM) reduced Aβ40 by 65% (p<0.001) and CNS-2 (5 μM) reduced Aβ40 by 60% (p=0.001) (FIG. 17A).

[4] = SAR study, 8 concentrations (30-0.01 μM), SY5Y-BACEGFP-SEAPAPPwt cells, read-out: IC50(sAPPβ)

Structure (SMILES)	IC50 [1, 4]	reduction in Aβ40 ([2]; 5 μM)	sAPPβ as visualized by IP-Western [3]	IC50 ([1]; 12 concentrations 0.1 nM to 30 μM, 96-well format (FIG. 8), read-out: cell-based IC50 (sAPPβ), 12-point dose-response)	reduction in Aβ40 ([2]; 20 μM)
O=C(CCc1ccccc1)NC[C@@H]1CCCN1CCOC(c1ccc(F)cc1)c1ccc(F)cc1 [CNS-2]	8.9 µM	60%	reduced sAPPβ		
Fc1ccc(C(OCCN2CCC[C@H]2CNCCc2ccccc2)c2ccc(F)cc2)cc1 [LDN-0057228]	~20 µM		reduced sAPPβ	~7 µM	65%
